In patent US11524003B2, “Alpha-amino esters of hydroxypropylthiazolidine carboxamide derivative and salt form, crystal polymorph thereof” (ObsEva S.A., priority 2016, dated 2022):
Values after ≈ are worked out from the molar mass of the structure shown. Like-named read-outs stand apart in the source and are kept apart here.

Experiments:
[1] = Solubility in water, FaSSIF and FeSSIF; format: physicochemical
[2] = In vivo conversion of compound I to compound II
Description: The invention is based on the discovery that compound I ((3S)-3-({[(2S)-3-(biphenyl-4-ylsulfonyl)-1,3-thiazolidin-2-yl]carbonyl}-amino)-3-(4-fluorophenyl)propyl L-valinate, represented by formula I, below) and salts thereof are converted in vivo to 3-([1,1′-biphenyl]-4-ylsulfonyl)-N-[1-(4-fluorophenyl)-3-hydroxypropyl]-1,3-thiazolidine-2-carboxamide (represented by formula II, below).
Compound II is a competitive and reversible prostaglandin F2α receptor antagonist (human FP2α receptor Ki=6 nM) that is under development for the management of preterm labor by inhibition of premature uterine contractions.

[3] = molecular target: T1, PepT1 transporter (Homo sapiens, UniProt P46059); test: Mucosal-to-serosal transport in Caco-2 after pre-treatment with PepT1 substrate Gly-Sar; format: in vitro ADME
T1 construct: host or cells: Caco-2
T1 sequence (P46059 1-708): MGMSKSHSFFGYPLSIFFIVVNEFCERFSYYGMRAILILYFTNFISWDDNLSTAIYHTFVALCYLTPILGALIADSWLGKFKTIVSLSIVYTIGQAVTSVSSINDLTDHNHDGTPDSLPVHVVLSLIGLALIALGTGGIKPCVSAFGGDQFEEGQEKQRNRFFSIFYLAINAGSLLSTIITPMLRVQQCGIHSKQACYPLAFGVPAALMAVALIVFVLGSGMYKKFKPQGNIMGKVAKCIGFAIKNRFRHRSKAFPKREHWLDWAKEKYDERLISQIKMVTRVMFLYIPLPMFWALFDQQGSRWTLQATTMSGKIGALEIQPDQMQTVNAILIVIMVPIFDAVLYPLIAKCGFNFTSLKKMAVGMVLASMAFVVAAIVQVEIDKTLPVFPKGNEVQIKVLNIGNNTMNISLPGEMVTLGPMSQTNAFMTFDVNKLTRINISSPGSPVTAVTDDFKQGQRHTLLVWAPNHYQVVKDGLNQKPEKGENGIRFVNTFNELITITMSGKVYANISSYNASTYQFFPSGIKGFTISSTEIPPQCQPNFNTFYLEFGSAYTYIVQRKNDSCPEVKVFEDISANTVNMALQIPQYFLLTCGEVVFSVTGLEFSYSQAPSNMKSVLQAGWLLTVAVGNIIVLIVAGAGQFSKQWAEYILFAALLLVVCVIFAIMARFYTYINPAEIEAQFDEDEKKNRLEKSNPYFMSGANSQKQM
Description: The differentiated cells were pre-treated for 30 min. with 10 mM of Gly-Sar in order to block the active transporter PepT1.
(§1) Compound I was dissolved in HBSS buffer (1% DMSO final concentration) at the concentrations of 1.5, 3 and 6 NM. Each concentration/sampling time was run in duplicate well. The test was performed in a gradient pH: the apical compartment (mucosal) was at pH 6.5, the basolateral compartment (serosal) was at pH 7.4.
(§2) Apical to basolateral (A→B, mucosal to serosal) transport: 200 μL of each concentration of compound I was added to the apical compartment and 400 μL of HBSS was added to the basolateral compartment. The plates were incubated at 37° C. An aliquot of the basolateral compartment was sampled after 60 and 120 min (t=60 and t=120). An aliquot of the apical compartment was sampled at the starting time (t=0) and after 120 min. (t=120). All samples were analyzed by LC/MS monitoring both compound I and the appearance of compound II.

[4] = tested on: Caco-2 cell monolayer; test: Bidirectional permeability across Caco-2 cell monolayers; format: in vitro ADME, human
Description: as §1, with “μM.” for “NM.”
as §2, with “(t=120).” for “(t=120). All samples were analyzed by LC/MS monitoring both compound I and the appearance of compound II.”
(§3) Basolateral to apical (B→A, serosal to mucosal) transport: 400 μL of each concentration of compound I was added to the basolateral compartment and 200 μL of HBSS was added to the apical compartment. The plates were incubated at 37° C. An aliquot of the apical compartment was sampled after 60 and 120 min (t=60 and t=120). An aliquot of the basolateral compartment was sampled at the starting time (t=0) and after 120 min. (t=120). All samples were analyzed by LC/MS monitoring both compound I and the appearance of compound II.
as §1, with “II” for “I”, “μM.” for “NM.”
as §2, with “II” for “I”, “(t=120).” for “(t=120). All samples were analyzed by LC/MS monitoring both compound I and the appearance of compound II.”
as §3, with “of compound II was added” for “of compound I was added”, “LC/MS monitoring compound II.” for “LC/MS monitoring both compound I and the appearance of compound II.”

[5] = tested on: spontaneous uterine contractions; test: Spontaneous uterine activity in late-term anaesthetized pregnant rat; format: in vivo; conditions: late-term pregnant rats
Description: The tocolytic effects of compound I and compound II were investigated in a model of spontaneous uterine activity in late-term (19-21 days of gestation) anaesthetized pregnant rat (Kawarabayashi et al. Am. J. Obstet. Gynecol. 175:1348-1355 (1996) and Shinkai et al. J. Pharm. Pharmacol. 52:1417-1423 (2000)). Briefly, late-term pregnant female rats were anaesthetized with urethane. One pregnant uterine horn was exposed and a polyethylene catheter bearing on the tip a latex balloon filled with saline was inserted into the lumen. The catheter was connected to an amplifying/recording system via a pressure-transducer. […] The percent variation of the AUC values relative to the spontaneous uterine response observed after each compound administration was calculated in comparison to the value recorded before the first dose-administration (basal value). The effect of compound I or compound II was evaluated by comparing pre- and post-treatment luminal uterine pressure values. For the oral administration the same computation procedure was applied at different time points after treatment. Statistical differences between treatment groups at each time-point were determined by using one-way ANOVA followed by Tukey test. Both compounds intravenously or orally administered were able to markedly reduce spontaneous uterine

[6] = Non-specific binding to cell-free transwells; format: in vitro ADME; conditions: 1.5, 3 and 6 μM; apical pH 6.5, basolateral pH 7.4
Description: Non-specific binding and recovery was assessed across cell-free transwells.
Compound I was tested at 1.5, 3 and 6 μM in duplicate cell-free transwells. The test was performed in a pH gradient between the apical and the basolateral compartment. […] The following sampling times were performed: 60 and 120 min for the basolateral compartment (receiver) and 120 min for the apical compartment (donor). Samples obtained were analyzed by LC-MS, both compound I and compound II were monitored in order to assess percent of recovery.

[7] = Stability in HBSS buffer of the Caco-2 experiments; format: in vitro ADME; conditions: HBSS buffer (2% DMSO final concentration) at 37° C. for 60 and 120 minutes
Description: Stability of both compound I and compound II was assessed during the test. […] An aliquot of each solution was sampled at time zero (t=0) to assess the starting concentrations of the compounds. The solutions were incubated at 37° C. for the duration of the transport experiment. An aliquot of each solution was sampled at the end of experiment (t=120) to assess the final concentrations of compound I and compound II. Samples were analyzed by LC-MS.

CC(C)[C@H](N)C(=O)OCC[C@H](NC(=O)[C@@H]1SCCN1S(=O)(=O)c1ccc(-c2ccccc2)cc1)c1ccc(F)cc1 [Compound I, (3S)-3-({[(2S)-3-(biphenyl-4-ylsulfonyl)-1,3-thiazolidin-2-yl]carbonyl}-amino)-3-(4-fluorophenyl)propyl L-valinate]
solubility ([1]; FaSSIF, pH 6.5 (fasted state), read-out: Solubility in FaSSIF pH 6.5): 70 µg/mL (≈ 117 µM) | solubility ([1]; FeSSIF, pH 5.0 (fed state), read-out: Solubility in FeSSIF pH 5.0): 90 µg/mL (≈ 150 µM) | Conversion to compound II after gastro-intestinal tract administration [2]: rapidly converted to compound II | PepT1 mediation of transport across Caco-2 monolayers [3]: likely not mediated by PepT1 | Compound I in receiving compartment after Gly-Sar pre-treatment ([3]; 10 mM Gly-Sar, A→B, 60 and 120 min): not detected | Conversion of compound I into compound II in Caco-2 test [4]: confirmed | Compound I in receiving (apical) compartment, basolateral to apical ([4]; 60 and 120 minutes): not detected | Compound I in receiving (basolateral) compartment, apical to basolateral ([4]; 60 and 120 minutes): not detected | Recovery of compound I in apical compartment at end of apical to basolateral experiment ([4]; 120 min): low recovery | Passage through the Caco-2 cell monolayer ([4]; bi-directional test): did not pass through the cell monolayer | Effect on spontaneous uterine contraction (FIG. 2) [5]: dose-dependent and reversible effect | Non-specific binding in the Caco-2 test system without cells [6]: excluded | Stability in HBSS buffer [7]: stable
